Data: patent publication US7704723B2, “Isolation and characterization of novel clostridial species” (The Board of Regents For Oklahoma State University, priority 2006, dated 2010)
Where a name gives a salt, the structure may show the parent alone. Marks after values point to notes of the source that are not given here.

What was measured:
strain P11 [1] = test: Trace metals elimination (0x) and addition (10x) in CO medium; assay type: cell-based, Clostridium ragsdalei; conditions: for Acetate production on elimination of the metal / CO metabolism on elimination of the metal / Increase in solvent to acid ratio on elimination of the metal: 0x metal in COM; for CO metabolism at increased level of the metal: 10x metal in COM, especially after a 48 hour feeding
Description: Bacterial Strain and Cultivation Media. Clostridial strain P11 was used throughout the study. […] The growth temperature was 37° C. […] Analytical methods. […] Milton Roy) in aluminum seal tubes (Balch & Wolfe, 1976). […] Hydrogen ion concentration was measured by electrode. Trace metals. […] Triplicate tubes of unamended (1×) and amended (0× and 10×) media were inoculated with strain P11 where each of these individual trace metals were added to or eliminated from the COM at 10× and 0× the original metal concentration. The cultures were fed every 48 hours with CO. This was also completed in duplicate in 160 mL serum bottles to simulate small scale batch conditions. Stock solutions were prepared for each of the above metals and added during the media preparation before boiling and degassing. […] In order to adapt cells to the higher concentrations of metals, at least 2 transfers were made for each set-up. This experiment was performed in triplicate and growth was measured over 7 days after which pH and ethanol concentration analyses were completed.

[2] = tested on: Clostridium ljungdahlii strain PETC; test: Growth of reference strain PETC on substrates as sole carbon and energy sources; assay type: cell-based; conditions: for Substrate utilization, C. ljungdahlii: strain PETC, growth on substrate as sole carbon and energy source, final OD600
Excerpt: Organisms. Clostridium ljundahlii strain PETC was obtained from a fructose stock culture maintained by Dr. Ralph S. Tanner and was used as the reference control strain. Strain P11 was obtained from an anaerobic enrichment inoculated with fresh water sediment from the Duck Pond at the University of Oklahoma by a procedure described previously (Bryant, 1972) under an atmosphere of CO:N2:CO2 (75:15:10) and an initial pH of 6.0. The carbon monoxide oxidizing clostridium described within was named Clostridium ragsdalei. This bacterium was designated strain P11 and deposited with the American Type Culture Collection as strain ATCC BAA-622.
(§1) Except for the deletion of NaHCO3 and an initial pH 6.3, growth on organic and gaseous substrates was performed as previously described (Tanner et. al., 1993). Resazurin (1 mg/L) was used as the redox indicator. Purified agar was added to the medium at a concentration of 2% for colony morphology description (Table 5). Heat labile substrates were filter sterilized (not autoclaved) and added from sterile stock solutions to a final concentration of 5 g/L before inoculation. The optimum temperature and pH (initial pH) was determined in medium containing fructose as the substrate. For determination of the optimum pH, media was buffered with HOMOPIPES (homopiperazine-N,N′-bis-2-[ethanesulfonic acid] (Research Organics, Cleveland, Ohio), MES (2-[N-morpholino]ethanesulfonic acid), or TES (N-tris [hydroxymethyl]methyl-2-aminoethanesulfonic acid) at (1.0 g/L). A 0.1 ml (˜2%) inoculum of fructose-grown cells was used to initiate growth. All media components used in these experiments were obtained from Sigma unless otherwise noted (Sigma Chemical Co., St. Louis, Mo.).
(§2) Analytical methods. […] For the substrate malate, utilization was analyzed by HPLC (“high-performance liquid chromatography”) equipped with a UV detector set at 214 nm using a Alltech, Prevail Organic Acid column (4.6×150 mm, 5 μm; Alltech, Deerfield, Mich.) with a mobile phase of 25 mM KH2PO4, pH 2.5 and 10% (v/v) methanol.

[3] = tested on: Clostridium ragsdalei strain P11; test: Growth of strain P11 on organic and gaseous substrates as sole carbon and energy sources; assay type: cell-based; conditions: for Substrate utilization, C. ragsdalei: strain P11, growth on substrate as sole carbon and energy source, final OD600; for Growth with substrate: Clostridium ragsdalei, malate and formate examined at pH 5.0-6.5
Description: as §1, §2

strain P11 [4] = test: Metabolic inhibitor studies (FA/TFA) in CO medium; assay type: cell-based, Clostridium ragsdalei
Description: Bacterial Strain and Cultivation Media. Clostridial strain P11 was used throughout the study. Carbon monoxide medium (COM) was used to cultivate and maintain the culture. The growth temperature was 37° C. COM is an undefined buffered medium initially pressurized to 10 psi (70 kPa) with N2/CO2 and then autoclaved for 15 minutes at 121° C. The medium contained per liter of distilled water: 25 ml mineral solution (Table 1), 10 ml trace metals solution (Table 2, 10 ml vitamin solution (Table 3), 1.0 g of yeast extract, 10 g of MES (2-[N-morpholino]ethanesulfonic acid), 0.001 g resazurin, 4.0 g cysteine.HCl, and 4.0 Na2S.9H2O; the initial pH of this medium was 6.1-6.3. The medium was prepared using strict anaerobic technique (Balch & Wolfe, 1976). Carbon monoxide was the sole substrate provided at 210 kPa (30 psi). Unless otherwise noted all growth experiments were conducted under a pressure of 30 psi with CO as the sole or primary substrate and were incubated horizontally to maximize gas diffusion into the medium. Standard inoculum size was about 2% (v/v) transferred from a stock culture that was growing in mid to late exponential phase, unless otherwise noted.
Analytical methods. Growth was measured spectrophotometrically at 600 nm (Spectronic 20D; Milton Roy) in aluminum seal tubes (Balch & Wolfe, 1976). Acetate and ethanol were measured simultaneously by a gas chromatograph (GC) equipped with a flame ionization detector (FID) on a Varian 3400 equipped with a 2 m steel column packed with an 80/120 Carbopak B-DA/4% carbowax resin 20M (Supelco, Bellfonte, Pa.). The column, injector, and detector temperature were 155, 200, and 200° C. respectively. Helium was the carrier gas and the flow rate was set at 30 ml min^−1. Hydrogen ion concentration was measured by electrode.
Metabolic Inhibitor Studies. Filter sterilized anaerobic stock solutions of fluoroacetate (FA) and trifluoroacetate (TFA) (Sigma Chemical Co.) were prepared to final concentrations of 4.5M. Before preparation, the FA and TFA powders were allowed to sit overnight in small beakers in the anaerobic chamber to allow any trapped oxygen to diffuse from the powder. […] The inhibitors were usually added to the medium one day prior to inoculating with P11 to ensure anaerobicity was maintained. All additions were made anaerobically by syringe. During this study growth was measured periodically by spectroscopy. Toward the end of resting cell phase, liquid samples (1 mL) were taken and stored frozen (−20° C.) until analyzed by GC and HPLC.

[5] = iron increased tenfold compared to standard medium

Compound | Substrate utilization, C. ljungdahlii [2] | Substrate utilization, C. ragsdalei [3] | further results
[Cu] [Cu, copper] |  |  | Acetate production on elimination of the metal (strain P11 [1]): decreased acetate production; CO metabolism on elimination of the metal (strain P11 [1]): limited CO metabolism; CO metabolism at increased level of the metal (strain P11 [1]): stimulated CO metabolism
OC[C@H]1O[C@@H](O[C@H]2[C@H](O)[C@@H](O)C(O)O[C@@H]2CO)[C@H](O)[C@@H](O)[C@H]1O (stereo partly shown) [Lactose] | − | − | 
O=C(O)/C=C\C(=O)O [Maleic acid] | − | − | 
O=C(O)CC(O)C(=O)O (stereo not shown) [Malic acid] | − | − | Growth with malate as the sole carbon source after adaptation ([2]; after incubation of about thirty days, pH 5.0-6.5): able to grow; Growth with substrate [3]: did not initially support growth
OC[C@H]1O[C@H](O[C@H]2[C@H](O)[C@@H](O)[C@H](O)O[C@@H]2CO)[C@H](O)[C@@H](O)[C@@H]1O [Maltose] | − | − | 
OC[C@@H](O)[C@@H](O)[C@H](O)[C@H](O)CO [Mannitol] | − | − | 
OC[C@H]1O[C@H](OCC2O[C@@H](O)[C@H](O)[C@@H](O)[C@@H]2O)[C@H](O)[C@@H](O)[C@H]1O (stereo partly shown) [Melibiose] | − | − | 
OC[C@H]1O[C@@](CO)(O[C@H]2O[C@H](CO)[C@@H](O)[C@H](O)[C@H]2O)[C@@H](O[C@H]2O[C@H](CO)[C@@H](O)[C@H](O)[C@H]2O)[C@@H]1O [Melizitose] | − | − | 
CO [Methanol] | − | − | 
[Mo] [Mo, molybdenum] |  |  | Acetate production on elimination of the metal (strain P11 [1]): increased acetate production; CO metabolism on elimination of the metal (strain P11 [1]): CO metabolism increased slightly; CO metabolism at increased level of the metal (strain P11 [1]): stimulated CO metabolism
CC(=O)[O-].[Na+] [Na-Acetate] | − | − | 
O=C([O-])CC(O)(CC(=O)[O-])C(=O)[O-].[Na+].[Na+].[Na+] [Na-Citrate] | +* (positive (indicates a final OD600 of greater than or equal to 0.1.)) | − | 
O=C[O-].[Na+] [Na-Formate] | − | − | Growth with substrate [3]: did not initially support growth
CC(O)C(=O)[O-].[Na+] (stereo not shown) [Na-Lactate] | − | − | 
CCC(=O)[O-].[Na+] [Na-Propionate] | − | − | 
O=C([O-])CCC(=O)[O-].[Na+].[Na+] [Na-Succinate] | − | − | 
[Ni] [Ni, nickel] |  |  | CO metabolism on elimination of the metal (strain P11 [1]): limited CO metabolism; Increase in solvent to acid ratio on elimination of the metal (strain P11 [1]): ~400%; CO metabolism at increased level of the metal (strain P11 [1]): stimulated CO metabolism
OCc1ccccc1O[C@@H]1O[C@H](CO)[C@@H](O)[C@H](O)[C@H]1O [Salicin] | − | − | 
OC[C@@H](O)[C@@H](O)[C@H](O)[C@@H](O)CO [Sorbitol] | − | − | 
O=C(O)C(F)(F)F [TFA, trifluoroacetate] |  |  | Growth yield (strain P11 [4]; COM containing 30 mM TFA): remained unchanged; Increase in acetate produced (strain P11 [4]; COM containing 30 mM TFA): 52%; Increase in ethanol produced (strain P11 [4]; COM containing 30 mM TFA): 126%; Increase of solvent to acid ratio (strain P11 [4]; COM containing 30 mM TFA): 50%; Ethanol production compared to the control strains (strain P11 [4]; P11 in the presence of the inhibitor, identical conditions): increase of ethanol production; Acetate (strain P11 [4]; P11 with 60 mM TFA): 34.58 mM; Ethanol (strain P11 [4]; P11 with 60 mM TFA): 45.60 mM; Final OD 600 (strain P11 [4]; P11 with 60 mM TFA): 0.641; MIC (minimum inhibitory concentration) (strain P11 [4]; strain P11 in COM, CO substrate): 150 mM
OC[C@H]1O[C@H](O[C@H]2O[C@H](CO)[C@@H](O)[C@H](O)[C@H]2O)[C@H](O)[C@@H](O)[C@@H]1O [Trehalose] | − | − | 
O=C(CO)[C@@H](O[C@H]1O[C@H](CO)[C@@H](O)[C@H](O)[C@H]1O)[C@H](O)[C@H](O)CO [Turanose] | − | − | 
O=C(O)CCC(=O)C(=O)O [alpha-ketoglutarate] | + (positive (indicates a final OD600 of greater than or equal to 0.1.)) | − | 
Cellulose | − | − | 
Glycogen | − | − | 
Inulin | − | − | 
Iron [Fe] |  |  | CO metabolism on elimination of the metal (strain P11 [1]): limited CO metabolism; Increase in solvent to acid ratio on elimination of the metal (strain P11 [1]): ~300%; CO metabolism at increased level of the metal (strain P11 [1]): stimulated CO metabolism; Concentration of ethanol produced (strain P11 [1]; [5]): doubles the concentration of ethanol produced; Production of acetic acid (strain P11 [1]; [5]): decreasing the production of acetic acid
Pectin | − | − | 
Starch | − | − | 
Trimethoxybenzoic acid | − | − | 
